# Test results from patent US8835428B2, “Diacylglycerol acyltransferase inhibitors” (Piramal Enterprises Limited, priority 2008, dated 2014).
# Biological target: T1, hDGAT1 (Homo sapiens, UniProt O75907)
# T1 construct: host or cells: Sf9 insect cells (baculovirus); microsomal preparation
# T1 sequence (O75907 1-488): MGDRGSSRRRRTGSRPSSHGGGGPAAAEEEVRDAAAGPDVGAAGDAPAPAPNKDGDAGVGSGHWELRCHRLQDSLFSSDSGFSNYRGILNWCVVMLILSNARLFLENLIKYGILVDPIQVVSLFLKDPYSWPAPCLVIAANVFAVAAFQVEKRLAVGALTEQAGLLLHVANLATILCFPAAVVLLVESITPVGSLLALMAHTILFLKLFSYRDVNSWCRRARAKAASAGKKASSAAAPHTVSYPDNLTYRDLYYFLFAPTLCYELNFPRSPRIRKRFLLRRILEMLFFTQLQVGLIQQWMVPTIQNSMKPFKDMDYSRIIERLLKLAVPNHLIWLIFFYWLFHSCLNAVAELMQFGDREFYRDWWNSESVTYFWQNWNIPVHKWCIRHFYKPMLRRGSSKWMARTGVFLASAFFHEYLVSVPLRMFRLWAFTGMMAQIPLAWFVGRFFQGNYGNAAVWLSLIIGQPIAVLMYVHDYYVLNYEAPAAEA
# Assay: In-vitro DGAT1 assay (hDGAT1 microsomes from Sf9 cells, 14C oleoyl CoA, triglyceride formation)
# Assay type: biochemical
# Settings: At 1 μM
# Outline: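 Human DGAT1 in baculovirus-infected Sf9 microsomes (2.5–10 μg), [14C]oleoyl-CoA with 409.5, 1228.5 or 1638 μM 1,2-dioleoyl-sn-glycerol, Tris-HCl pH 7.4 buffer with BSA. Compounds screened at 10, 5 and 1 μM in duplicate. Reaction 10 min at 37 °C; heptane-extracted [14C]triglyceride counted by scintillation.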
row,Structure (SMILES),inhibition at 1 µM [%]
1,"CC(C)[C@H](NC(=O)c1cc(-c2ccc(NC(=O)Nc3ccc(F)cc3)cc2F)no1)C(=O)O [Example 146, (S)-2-(3-(2-fluoro-4-(3-(4-fluorophenyl)ureido)phenyl)isoxazole-5-carboxamido)-3-methylbutanoic acid]",50 to 75

# Same assay, conditions: At 5 μM
row,Structure (SMILES),inhibition at 5 µM [%]
1,"COC(=O)[C@@H](NC(=O)c1cc(-c2ccc(NC(=O)Nc3ccc(F)cc3F)cc2F)no1)C(C)C [Example 141, (S)-Methyl 2-(3-(4-(3-(2,4-difluorophenyl)ureido)-2-fluorophenyl)isoxazole-5-carboxamido)-3-methylbutanoate]",0 to 50
2,"CC(C)[C@H](NC(=O)c1cc(-c2ccc(NC(=O)Nc3ccc(F)cc3F)cc2F)no1)C(=O)O [Example 142, (S)-2-(3-(4-(3-(2,4-difluorophenyl)ureido)-2-fluorophenyl)isoxazole-5-carboxamido)-3-methylbutanoic acid]",75 to 100
3,"COC(=O)[C@@H](NC(=O)c1cc(-c2ccc(NC(=O)Nc3ccccc3F)cc2F)no1)C(C)C [Example 143, (S)-methyl 2-(3-(2-fluoro-4-(3-(2-fluorophenyl)ureido)phenyl)isoxazole-5-carboxamido)-3-methylbutanoate]",50 to 75
4,"CC(C)[C@H](NC(=O)c1cc(-c2ccc(NC(=O)Nc3ccccc3F)cc2F)no1)C(=O)O [Example 144, (S)-2-(3-(2-Fluoro-4-(3-(2-fluorophenyl)ureido)phenyl)isoxazole-5-carboxamido)-3-methylbutanoic acid]",75 to 100
5,"COC(=O)[C@@H](NC(=O)c1cc(-c2ccc(NC(=O)Nc3ccc(F)cc3)cc2F)no1)C(C)C [Example 145, (S)-Methyl 2-(3-(2-fluoro-4-(3-(4-fluorophenyl)ureido)phenyl)isoxazole-5-carboxamido)-3-methylbutanoate]",50 to 75
6,"COC(=O)C(NC(=O)c1cc(-c2ccc(NC(=O)Nc3cccc(F)c3)cc2)no1)C(C)C (stereo not shown) [Example 151, Methyl 2-(3-(4-(3-(3-fluorophenyl)ureido)phenyl)isoxazole-5-carboxamido)-3-methylbutanoate]",50 to 75

# Same assay, conditions: At 10 μM
Structure (SMILES),inhibition at 10 µM [%],% inhibition of hDGAT1
"Cc1cc(NC(=O)Nc2ccc(F)cc2F)ccc1-c1cc(C(=O)NC(C(=O)O)C(C)C)on1 (stereo not shown) [Example 138, 2-(3-(4-(3-(2,4-difluorophenyl)ureido)-2-methylphenyl)isoxazole-5-carboxamido)-3-methylbutanoic acid]",75 to 100,
"COC(=O)C(CC(C)C)NC(=O)c1cc(-c2ccc(NC(=O)Nc3ccc(F)cc3F)cc2C)no1 (stereo not shown) [Example 139, Methyl 2-(3-(4-(3-(2,4-difluorophenyl)ureido)-2-methylphenyl)isoxazole-5-carboxamido)-4-methylpentanoate]",0 to 50,
"Cc1cc(NC(=O)Nc2ccc(F)cc2F)ccc1-c1cc(C(=O)NC(CC(C)C)C(=O)O)on1 (stereo not shown) [Example 140, 2-(3-(4-(3-(2,4-difluorophenyl)ureido)-2-methylphenyl)isoxazole-5-carboxamido)-4-methylpentanoic acid]",75 to 100,
"COC(=O)C(NC(=O)c1cc(-c2ccc(NC(=O)Nc3ccccc3F)c(F)c2)no1)C(C)C (stereo not shown) [Example 147, Methyl 2-(3-(3-fluoro-4-(3-(2-fluorophenyl)ureido)phenyl)isoxazole-5-carboxamido)-3-methylbutanoate]",50 to 75,
"CC(C)C(NC(=O)c1cc(-c2ccc(NC(=O)Nc3ccccc3F)c(F)c2)no1)C(=O)O (stereo not shown) [Example 148, 2-(3-(3-fluoro-4-(3-(2-fluorophenyl)ureido)phenyl)isoxazole-5-carboxamide)-3-methylbutanoic acid]",,+++ (>75% Inhibition ≦100)
"CC(C)C(NC(=O)c1cc(-c2ccc(NC(=O)Nc3ccc(F)cc3F)c(F)c2)no1)C(=O)O (stereo not shown) [Example 150, 2-(3-(4-(3-(2,4-Difluorophenyl)ureido)-3-fluorophenyl)isoxazole-5-carboxamido)-3-methylbutanoic acid]",75 to 100,
